In US12208075B2, “Antimicrobial compositions containing free fatty acids” (priority 2009, dated 2025):

Tests used:
Staphylococcus aureus [1] = assay: Ex-vivo wound model (beef brisket); settings: FIG. 10, 100 minutes exposure, 7 logs inoculum
[2] = system: adhesion of Candida albicans to human Buccal Epithelial Cells; assay: microbe, parasite or virus in culture; type: cell-based; settings: for incremental increase in adhesion inhibitory effect achieved by de-lipidisation (in brackets): versus Table 4
[3] = system: Staphylococcus aureus RN 4220; assay: Comparative microbicidal suspension test, free vs emulsified fatty acids; type: cell-based
fresh sheep blood [4] = assay: Blood clotting time, visual tube comparison; settings: between 0.5% and […] caprylic acid emulsified in 0.5% DLL
Method: Comparative measurement of accelerated clotting times is achieved using appropriate volumes of fresh blood mixed with a volume of test material, where the combined volumes totaled 5 ml in each case in a 15 ml graduated Greiner centrifuge tube (Greiner Bio-one, North Carolina, USA). Immediately after addition of fresh blood, the tubes are inverted twice to mix and allowed to stand without further agitation. Clot formation is visibly apparent when the tubes are tilted slightly, and once a clot formed its integrity was such that it would remain suspended when the tubes were inverted. In each test a 5 ml sample of fresh whole blood (undiluted) is used as a control.
Rate of blood clotting was determined using freshly aspirated sheep blood and apparatus and procedures described in the Methods section. An activated blood clotting meter was used to measure anti-clotting effects and a visual tube comparison to evaluate reduced clotting times.
Blood clotting and/or anti-clotting effects were assessed using a 20% ratio of test item to fresh blood: in practice 4.0 ml of fresh sheep blood was added to tubes containing 1.0 ml of test item, inverted twice to mix and then either left standing for visual assessment of reduced clotting time or a single drop was applied to the cuvette of an activated blood clotting apparatus for assessment of anti-clotting effect (extended time to clot formation).

Staphylococcus aureus [5] = assay: Microbicidal effect of catheter locking solutions in whole blood; type: cell-based; settings: 20% by volume, 60 min
Escherichia coli = assay: as above; type: cell-based; settings: 20% by volume, 60 min
[6] = system: Staphylococcus aureus, Streptococcus epidermidis, Escherichia coli and Candida albicans; assay: Microbicidal effect of catheter locking solutions in whole blood, test inoculums overall; type: cell-based; settings: 20%, one hour in whole blood
fresh sheep blood [7] = assay: Activated blood clotting time (Hemochron meter)
[8] = system: Streptococcus epidermidis; assay: Microbicidal effect of catheter locking solutions in whole blood; type: cell-based; settings: 20% by volume, 60 min
Candida albicans = assay: as above; type: cell-based; settings: 20% by volume, 60 min
[9] = Table 21, 0.5% W/V fatty acid, free or emulsified in 0.4% W/V DLL
[10] = Table 22, low dose, listed as Free caprylic acid 0.05%
[11] = Table 22, low dose, listed as Free caprylic acid 0.1%
[12] = 2.5 mg/ml, Table 4, lipids as purchased
[13] = 5.0 mg/ml, Table 4, lipids as purchased
[14] = 10 mg/ml, Table 4, lipids as purchased
[15] = 2.5 mg/ml, Table 5, de-lipidised
[16] = 5.0 mg/ml, Table 5, de-lipidised
[17] = 10 mg/ml, Table 5, de-lipidised

Molecule	% Adhesion ([2]; Table 21)	% inhibition ([2]; Table 21)	Test Count/100 BEC [2, 9]	viable count (log number) ([3]; 0 Seconds at 37° C.)	viable count (log number) ([3]; 60 Seconds at 37° C.)	viable count (log number) ([3]; 120 Seconds at 37° C.)	viable count (log number) ([3]; 180 Seconds at 37° C.)	viable count (log number) ([3]; 240 Seconds at 37° C.)	viable count (log number) ([3]; 300 Seconds at 37° C.)	viable count (log number) ([3]; 360 Seconds at 37° C.)	also measured
[H]/N=C(\N/C(=N/[H])NCCCCCCNC(=N)NC(=N)Nc1ccc(Cl)cc1)Nc1ccc(Cl)cc1 [chlorhexidine, chlorhexidine gluconate]	–	–	–	–	–	–	–	–	–	–	logs remaining (Staphylococcus aureus [1]): 1 logs
C=CCCCCCCCCC(=O)O [Free undecylenic acid, undecylenic acid]	86%	14%	448	7.87 log	7.19 log	6.99 log	6.57 log	6.83 log	6.67 log	6.31 log	–
CCCCCCCC(=O)O [Free caprylic acid, caprylic acid]	93%	7%	400	6.94 log	6.79 log	6.83 log	6.21 log	6.33 log	5.89 log	6.17 log	clotting time (fresh sheep blood [4]): approximately 40 seconds; % Adhesion [2, 10]: 94%; % inhibition [2, 10]: 6%; Test Count/100 BEC [2, 10]: 459; % Adhesion [2, 11]: 95%; % inhibition [2, 11]: 5%; Test Count/100 BEC [2, 11]: 466; factor of amplification of adhesion inhibitory effect in emulsified form ([2]; emulsified versus free): 14
CC(C)=CCC[C@@H](C)[C@H]1CC[C@@]2(C)C3=C(CC[C@]12C)[C@@]1(C)CC[C@H](O)C(C)(C)[C@@H]1CC3 [L, Lanosterol]	–	–	–	–	–	–	–	–	–	–	Candida albicans per 100 Buccal Epithelial Cell [2, 12]: 306; Candida albicans per 100 Buccal Epithelial Cell [2, 13]: 236; Candida albicans per 100 Buccal Epithelial Cell [2, 14]: 133; inhibition at 2500 µg/mL ([2]; Candida albicans, Epithelial cell, read-out: % inhibition at 2.5 mg/ml): 41%
Heparin	–	–	–	–	–	–	–	–	–	–	viable count in whole blood (log number) (Staphylococcus aureus [5]): 8.39 log; viable count in whole blood (log number) (Escherichia coli): 7.92 log; microbicidal effect in words [6]: no microbial inhibition; Activated Blood Clotting Time (fresh sheep blood [7]; 5% incorporation in whole blood): 284 s; Activated Blood Clotting Time (fresh sheep blood [7]; 10% incorporation in whole blood): 423 s; Activated Blood Clotting Time (fresh sheep blood [7]; 15% incorporation in whole blood): 601 s; Activated Blood Clotting Time (fresh sheep blood [7]; 20% incorporation in whole blood): 1023 s; viable count in whole blood (log number) [8]: 8.22 log; viable count in whole blood (log number) (Candida albicans): 6.94 log
Bovine Serum Albumin [BSA, reference compound]	–	–	–	–	–	–	–	–	–	–	% inhibition at 2.5 mg/ml ([2]; 2.5 mg/ml, Table 4): 19%; Candida albicans per 100 Buccal Epithelial Cell [2, 12]: 400; Candida albicans per 100 Buccal Epithelial Cell ([2]; 2.5 mg/ml, Table 6, water or 100 mM salt pH 4.5, with/without BSA, listed as BSA Sod′ Lactate): 408; Candida albicans per 100 Buccal Epithelial Cell ([2]; 2.5 mg/ml, Table 6, water or 100 mM salt pH 4.5, with/without BSA, listed as BSA Sod′ citrate): 393; Candida albicans per 100 Buccal Epithelial Cell ([2]; 2.5 mg/ml, Table 6, water or 100 mM salt pH 4.5, with/without BSA, listed as BSA: water): 438; Candida albicans per 100 Buccal Epithelial Cell [2, 13]: 379; % inhibition at 5 mg/ml ([2]; Table 6, listed as BSA Sod′ Lactate): 21%; Candida albicans per 100 Buccal Epithelial Cell ([2]; 5.0 mg/ml, Table 6, listed as BSA Sod′ Lactate): 372; % inhibition at 5 mg/ml ([2]; Table 6, listed as BSA Sod′ citrate): 22%; Candida albicans per 100 Buccal Epithelial Cell ([2]; 5.0 mg/ml, Table 6, listed as BSA Sod′ citrate): 369; % inhibition at 5 mg/ml ([2]; Table 6, listed as BSA: water): 12%; Candida albicans per 100 Buccal Epithelial Cell ([2]; 5.0 mg/ml, Table 6, listed as BSA: water): 400; Candida albicans per 100 Buccal Epithelial Cell [2, 14]: 303; Candida albicans per 100 Buccal Epithelial Cell ([2]; 10 mg/ml, Table 6): 362; % Adhesion ([2]; Table 16): 83%; % inhibition ([2]; Table 16): 17%; Count/100 BEC ([2]; Table 16, 100 mM sodium citrate pH 4.5, 0.5% Methocel, lipids 0.1%): 425
CCCCCCCCCC(=O)O [Free capric acid, capric acid]	90%	10%	386	6.94 log	6.32 log	6.48 log	6.73 log	6.36 log	5.97 log	6.11 log	–
DL BSA: Bovine Serum Albumin treated by the de-lipidisation procedure [reference compound]	–	–	–	–	–	–	–	–	–	–	% inhibition at 2.5 mg/ml ([2]; 2.5 mg/ml, Table 5): 16%; Candida albicans per 100 Buccal Epithelial Cell [2, 15]: 431; incremental increase in adhesion inhibitory effect achieved by de-lipidisation (in brackets) ([2]; 2.5 mg/ml): −3%; Candida albicans per 100 Buccal Epithelial Cell [2, 16]: 393; Candida albicans per 100 Buccal Epithelial Cell [2, 17]: 329
CCCCCCCCCCCC(=O)O [Free lauric acid, lauric acid]	95%	5%	450	–	–	–	–	–	–	–	–
CC(C)=CCC[C@@H](C)[C@H]1CC[C@@]2(C)C3=C(CC[C@]12C)[C@@]1(C)CC[C@H](O)C(C)(C)[C@@H]1CC3 [DL L]	–	–	–	–	–	–	–	–	–	–	% inhibition at 2.5 mg/ml ([2]; 2.5 mg/ml, Table 5): 54%; Candida albicans per 100 Buccal Epithelial Cell [2, 15]: 247; incremental increase in adhesion inhibitory effect achieved by de-lipidisation (in brackets) ([2]; 2.5 mg/ml): +13%; Candida albicans per 100 Buccal Epithelial Cell [2, 16]: 91; Candida albicans per 100 Buccal Epithelial Cell [2, 17]: 49
CCCCCCCCC(=O)O [Free pelargonic acid, pelargonic acid]	84%	16%	360	6.94 log	6.55 log	6.31 log	5.96 log	5.67 log	5.83 log	5.27 log	–
CCCCCCCCCCCCCC(=O)O [Free myristic acid, myristic acid]	92%	8%	436	7.38 log	7.27 log	7.84 log	6.93 log	7.11 log	6.26 log	6.84 log	–
CCCCCC(=O)O [Free caproic acid, caproic acid]	89%	11%	380	7.87 log	7.17 log	6.82 log	7.57 log	6.93 log	6.47 log	6.73 log	–
